How the values were obtained:
[1] = test system: male rats; test: Plasma metabolite profiling (GC-MS/LC-MS) for liver toxicity markers, 28-day gavage study, male rats; assay type: in vivo, rat; conditions: male rats
Description: (§1) A group of each 5 male and female rats was dosed once daily with the indicated compounds (see tables below) at 10 and 100 mg/kg body weight per gavage over 28 days. Additional groups of each 5 male and female animals served as controls. Before starting the treatment period, animals, which were 62-64 days old when supplied, were acclimatized to the housing and environmental conditions for 7 days. All animals of the animal population were kept under the same constant temperature (20-24±3° C.) and the same constant humidity (30-70%). Each animal of the animal population was kept in a separate cage. The animals of the animal population are fed ad libitum. The food to be used was be essentially free of chemical or microbial contaminants. Drinking water was also offered ad libitum. Accordingly, the water was be free of chemical and microbial contaminants as laid down in the European Drinking Water Directive 98/83/EG. The illumination period was 12 hours light followed by 12 hours darkness (12 hours light, from 6:00 to 18:00, and 12 hours darkness, from 18:00 to 6:00).
(§2) In the morning of day 7, 14, and 28, blood was taken from the retroorbital venous plexus from fasted anaesthetized animals. From each animal, 1 ml of blood was collected with EDTA as anticoagulant. The samples were be centrifuged for generation of plasma. All plasma samples were covered with a N2 atmosphere and then stored at −80° C. until analysis.
(§3) For mass spectrometry-based metabolite profiling analyses plasma samples were extracted and a polar and a non-polar fraction was obtained. For GC-MS analysis, the non-polar fraction was treated with methanol under acidic conditions to yield the fatty acid methyl esters. Both fractions were further derivatised with O-methyl-hydroxyamine hydrochloride and pyridine to convert Oxo-groups to O-methyloximes and subsequently with a silylating agent before analysis. In LC-MS analysis, both fractions were reconstituted in appropriate solvent mixtures. HPLC was performed by gradient elution on reversed phase separation columns. For mass spectrometric detection metanomics proprietary technology was applied which allows target and high sensitivity MRM (Multiple Reaction Monitoring) profiling in parallel to a full screen analysis.
(§4) Following comprehensive analytical validation steps, the data for each analyte were normalized against data from pool samples. These samples were run in parallel through the whole process to account for process variability. The significance of treatment group values specific for sex, dose group and metabolite was determined by comparing means of the treated groups to the means of the respective untreated control groups using WELCH-test. Normalized treatment group values and their significance were fed into a database for further statistics and data mining processes.
(§5) The changes of the group of plasma metabolites being indicative for liver toxicity after treatment of the rats are shown in the following tables: […]

[2] = test system: female rats; test: Plasma metabolite profiling (GC-MS/LC-MS) for liver toxicity markers, 28-day gavage study, female rats; assay type: in vivo, rat; conditions: female rats, fh7 (day 7)
Description: as §1, §2, §3, §4, §5

In the case of `C1CCOC1` [Tetrahydrofuran], the “1,2-Dioleoyl-sn-glycero-3-phosphatidyl-L-serine, change of plasma metabolite” value ([1]; mh7 (day 7)) is reported as 1.70, the “4-Hydroxysphingosine, change of plasma metabolite” value (“4-Hydroxysphingosine, change” below) ([1]; mh7 (day 7)) is reported as 2.67 and the “Arachidonic acid (C20:cis-[5,8,11,14]4), change of plasma metabolite” value (from here on “Arachidonic acid … change of plasma metabolite”) ([1]; mh7 (day 7)) is reported as 1.71. For the same compound, the “Behenic acid (C22:0), change of plasma metabolite” value (“Behenic acid (C22:0), change” below) ([1]; mh7 (day 7)) was 1.35, the “Ceramide (d18:1, C24:0), change of plasma metabolite” value (“Ceramide (d18:1, C24:0), change” below) ([1]; mh7 (day 7)) was 1.37 and the “Ceramide (d18:1, C24:1), change of plasma metabolite” value (shortened to “Ceramide (d18:1, C24:1), change”) ([1]; mh7 (day 7)) was 1.53. The “Cholesterol, change of plasma metabolite” value ([1]; mh7 (day 7)) was 1.81, the “Docosahexaenoic acid (C22:cis[4,7,10,13,16,19]6), change of plasma metabolite” value ([1]; mh7 (day 7)) was 2.52 and the “Eicosatrienoic acid, change of plasma metabolite” value (shortened to “Eicosatrienoic acid, change”) ([1]; mh7 (day 7)) was 3.13. For the same compound, the “Glycerolphosphate, lipid fraction, change of plasma metabolite” value ([1]; mh7 (day 7)) was 1.94, the “Heptadecanoic acid (C17:0), change of plasma metabolite” value (shortened to “Heptadecanoic acid (C17:0), change”) ([1]; mh7 (day 7)) was 1.52 and the “Lignoceric acid (C24:0), change of plasma metabolite” value (“Lignoceric acid (C24:0), change” below) ([1]; mh7 (day 7)) was 1.62. For the same compound, the “Linoleic acid (C18:cis[9,12]2), change of plasma metabolite” value (shortened to “Linoleic acid (C18:cis[9,12]2), change”) ([1]; mh7 (day 7)) was 1.52, the “Nervonic acid (C24:1), change of plasma metabolite” value (“Nervonic acid (C24:1), change” below) ([1]; mh7 (day 7)) was 1.88 and the “Palmitic acid (C16:0), change of plasma metabolite” value (“Palmitic acid (C16:0), change” for short) ([1]; mh7 (day 7)) was 1.48. The “Phosphatidylcholine (C18:0/C22:6), change of plasma metabolite” value ([1]; mh7 (day 7)) was 1.83, the “Phosphatidylcholine (C18:2, C20:4), change of plasma metabolite” value ([1]; mh7 (day 7)) was 1.52 and the “Sphingomyelin (d18:1, C16:0), change of plasma metabolite” value (from here on “Sphingomyelin (d18:1, C16:0), change”) ([1]; mh7 (day 7)) was 1.46. The “Tricosanoic acid (C23:0), change of plasma metabolite” value (shortened to “Tricosanoic acid (C23:0), change”) ([1]; mh7 (day 7)) was 1.51, the “alpha-Tocopherol, change of plasma metabolite” value (from here on “alpha-Tocopherol, change”) ([1]; mh7 (day 7)) was 2.61 and the “myo-Inositol-2-monophosphate, lipid fraction, change of plasma metabolite” value ([1]; mh7 (day 7)) was 1.70. For the same compound, the “1,2-Dioleoyl-sn-glycero-3-phosphatidyl-L-serine, change of plasma metabolite” value ([1]; mh14 (day 14)) was 1.81, the “4-Hydroxysphingosine, change” value ([1]; mh14 (day 14)) was 2.56 and the “Arachidonic acid … change of plasma metabolite” value ([1]; mh14 (day 14)) was 1.64. The “Behenic acid (C22:0), change” value ([1]; mh14 (day 14)) was 1.77, the “Ceramide (d18:1, C24:0), change” value ([1]; mh14 (day 14)) was 1.55 and the “Ceramide (d18:1, C24:1), change” value ([1]; mh14 (day 14)) was 1.48. For the same compound, the “Cholesterol, change of plasma metabolite” value ([1]; mh14 (day 14)) was 1.98, the “Docosahexaenoic acid (C22:cis[4,7,10,13,16,19]6), change of plasma metabolite” value ([1]; mh14 (day 14)) was 2.37 and the “Eicosatrienoic acid, change” value ([1]; mh14 (day 14)) was 3.76. The “Glycerolphosphate, lipid fraction, change of plasma metabolite” value ([1]; mh14 (day 14)) was 1.93, the “Heptadecanoic acid (C17:0), change” value ([1]; mh14 (day 14)) was 1.54 and the “Lignoceric acid (C24:0), change” value ([1]; mh14 (day 14)) was 1.71. For the same compound, the “Linoleic acid (C18:cis[9,12]2), change” value ([1]; mh14 (day 14)) was 1.46, the “Nervonic acid (C24:1), change” value ([1]; mh14 (day 14)) was 1.87 and the “Palmitic acid (C16:0), change” value ([1]; mh14 (day 14)) was 1.49. The “Phosphatidylcholine (C18:0/C22:6), change of plasma metabolite” value ([1]; mh14 (day 14)) was 1.71, the “Phosphatidylcholine (C18:2, C20:4), change of plasma metabolite” value ([1]; mh14 (day 14)) was 1.46 and the “Sphingomyelin (d18:1, C16:0), change” value ([1]; mh14 (day 14)) was 1.45. The “Tricosanoic acid (C23:0), change” value ([1]; mh14 (day 14)) was 1.74, the “alpha-Tocopherol, change” value ([1]; mh14 (day 14)) was 2.23 and the “myo-Inositol-2-monophosphate, lipid fraction, change of plasma metabolite” value ([1]; mh14 (day 14)) was 2.40. For the same compound, the “1,2-Dioleoyl-sn-glycero-3-phosphatidyl-L-serine, change of plasma metabolite” value ([1]; mh28 (day 28)) was 1.84, the “4-Hydroxysphingosine, change” value ([1]; mh28 (day 28)) was 2.64 and the “Arachidonic acid … change of plasma metabolite” value ([1]; mh28 (day 28)) was 1.76. For the same compound, the “Behenic acid (C22:0), change” value ([1]; mh28 (day 28)) was 1.65, the “Ceramide (d18:1, C24:0), change” value ([1]; mh28 (day 28)) was 1.40 and the “Ceramide (d18:1, C24:1), change” value ([1]; mh28 (day 28)) was 1.18. For the same compound, the “Cholesterol, change of plasma metabolite” value ([1]; mh28 (day 28)) was 2.03, the “Docosahexaenoic acid (C22:cis[4,7,10,13,16,19]6), change of plasma metabolite” value ([1]; mh28 (day 28)) was 2.02 and the “Eicosatrienoic acid, change” value ([1]; mh28 (day 28)) was 3.77. The “Glycerolphosphate, lipid fraction, change of plasma metabolite” value ([1]; mh28 (day 28)) was 2.15, the “Heptadecanoic acid (C17:0), change” value ([1]; mh28 (day 28)) was 1.51 and the “Lignoceric acid (C24:0), change” value ([1]; mh28 (day 28)) was 1.57. For the same compound, the “Linoleic acid (C18:cis[9,12]2), change” value ([1]; mh28 (day 28)) was 1.50, the “Nervonic acid (C24:1), change” value ([1]; mh28 (day 28)) was 1.97 and the “Palmitic acid (C16:0), change” value ([1]; mh28 (day 28)) was 1.36. For the same compound, the “Phosphatidylcholine (C18:0/C22:6), change of plasma metabolite” value ([1]; mh28 (day 28)) was 1.32, the “Phosphatidylcholine (C18:2, C20:4), change of plasma metabolite” value ([1]; mh28 (day 28)) was 1.18 and the “Sphingomyelin (d18:1, C16:0), change” value ([1]; mh28 (day 28)) was 1.39. For the same compound, the “Tricosanoic acid (C23:0), change” value ([1]; mh28 (day 28)) was 1.55, the “alpha-Tocopherol, change” value ([1]; mh28 (day 28)) was 2.15 and the “myo-Inositol-2-monophosphate, lipid fraction, change of plasma metabolite” value ([1]; mh28 (day 28)) was 2.70. For the same compound, the “1,2-Dioleoyl-sn-glycero-3-phosphatidyl-L-serine, change of plasma metabolite” value [2] was 1.49, the “4-Hydroxysphinganine, change of plasma metabolite” value [2] was 1.98 and the “Arachidonic acid … change of plasma metabolite” value [2] was 1.85. The “Behenic acid (C22:0), change” value [2] was 1.52, the “Ceramide (d18:1, C24:0), change” value [2] was 1.85 and the “Cholesterol, change of plasma metabolite” value [2] was 2.18. For the same compound, the “Docosahexaenoic acid (C22:cis[4,7,10,13,16,19]6), change of plasma metabolite” value [2] was 3.22, the “Glycerol, lipid fraction, change of plasma metabolite” value [2] was 1.89 and the “Glycerolphosphate, lipid fraction, change of plasma metabolite” value [2] was 1.77. For the same compound, the “Heptadecanoic acid (C17:0), change” value [2] was 1.72, the “ID28x493, change of plasma metabolite” value [2] was 2.44 and the “Lignoceric acid (C24:0), change” value [2] was 1.59. The “Linoleic acid (C18:cis[9,12]2), change” value [2] was 2.43, the “Nervonic acid (C24:1), change” value [2] was 1.54 and the “Palmitic acid (C16:0), change” value [2] was 1.97. The “Phosphate, lipid (Phospholipids), change of plasma metabolite” value [2] was 1.37, the “Stearic acid (C18:0), change of plasma metabolite” value [2] was 1.60 and the “TAG No 1, change of plasma metabolite” value [2] was 1.66. For the same compound, the “Threonic acid, change of plasma metabolite” value [2] was 1.92 and the “Tricosanoic acid (C23:0), change” value [2] was 1.80.

Source: patent US8597875B2, “Method for diagnosing liver toxicity with sex specific biomarkers” (BASF SE, priority 2008, dated 2013)
